Laboratory results taken from ChEMBL document CHEMBL6083210, “Exploring apoptotic induction of malabaricone A in triple-negative breast cancer cells: an acylphenol phyto-entity isolated from the fruit rind of Myristica malabarica Lam” (RSC Med Chem, 2024).

Columns and labels:
Format in all cases: functional, cell-based
MCF-10A = assay: Antiproliferative activity against human MCF-10A cells assessed as reduction in cell viability incubated for 24 hrs by MTT assay
SK-BR-3 = assay: Antiproliferative activity against human SK-BR-3 cells assessed as reduction in cell viability incubated for 24 hrs by MTT assay; conditions: SK-BR-3, 24 h
MDA-MB-231 = assay: Antiproliferative activity against human MDA-MB-231 cells assessed as reduction in cell viability incubated for 24 hrs by MTT assay; conditions: MDA-MB-231, 24 h

| SMILES | IC50 (MCF-10A) | IC50 (SK-BR-3) | IC50 (MDA-MB-231) |
| --- | --- | --- | --- |
| O=C(CCCCCCCCc1ccc(O)cc1)c1c(O)cccc1O [MALABARICONE B] | 62 µM | 13.5 µM | 19.1 µM |
| COc1cccc2c1C(=O)c1c(O)c3c(c(O)c1C2=O)C[C@@](O)(C(=O)CO)C[C@@H]3O[C@H]1C[C@H](N)[C@H](O)[C@H](C)O1 [DOXORUBICIN] | 35.2 µM | > 50 µM | 20.8 µM |
